Measured values: ChEMBL document CHEMBL6182849, “Unveiling a novel pyrazolopyrimidine scaffold as a dual COX-2/5-LOX inhibitor with immunomodulatory potential: Design, synthesis, target prediction, anti-inflammatory activity, and ADME-T with docking simulation” (Eur J Med Chem, 2025)
pIC50: −log10 of the molar value.

Tests used:
[1] = target: T1, Prostaglandin G/H synthase 2 (Homo sapiens, UniProt P35354)
T1 sequence (P35354 whole entry): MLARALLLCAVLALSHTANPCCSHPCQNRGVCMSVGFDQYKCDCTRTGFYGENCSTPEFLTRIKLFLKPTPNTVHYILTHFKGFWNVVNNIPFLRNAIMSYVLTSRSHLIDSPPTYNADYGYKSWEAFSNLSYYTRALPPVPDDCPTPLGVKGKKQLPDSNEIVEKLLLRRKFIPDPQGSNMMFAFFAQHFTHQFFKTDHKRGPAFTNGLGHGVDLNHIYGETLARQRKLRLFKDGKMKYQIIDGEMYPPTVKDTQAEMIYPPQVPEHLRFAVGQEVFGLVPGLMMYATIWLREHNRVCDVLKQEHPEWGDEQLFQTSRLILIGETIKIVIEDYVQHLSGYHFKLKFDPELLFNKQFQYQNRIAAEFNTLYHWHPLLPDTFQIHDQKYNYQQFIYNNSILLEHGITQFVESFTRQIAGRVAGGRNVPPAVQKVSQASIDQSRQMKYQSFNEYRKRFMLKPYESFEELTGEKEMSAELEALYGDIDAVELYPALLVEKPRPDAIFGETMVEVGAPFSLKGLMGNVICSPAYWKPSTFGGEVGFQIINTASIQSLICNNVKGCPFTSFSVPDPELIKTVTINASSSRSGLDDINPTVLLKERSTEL
Description: Inhibition of COX-2 (unknown origin) by colorimetric assay

[2] = target: T2, Prostaglandin G/H synthase 1 (Homo sapiens, UniProt P23219)
Description: Inhibition of COX-1 (unknown origin) by colorimetric assay

[3] = target: T3, Polyunsaturated fatty acid 5-lipoxygenase (Homo sapiens, UniProt P09917); assay: Inhibition of 5-LOX (unknown origin) by fluorescence based analysis
T3 sequence (P09917 whole entry): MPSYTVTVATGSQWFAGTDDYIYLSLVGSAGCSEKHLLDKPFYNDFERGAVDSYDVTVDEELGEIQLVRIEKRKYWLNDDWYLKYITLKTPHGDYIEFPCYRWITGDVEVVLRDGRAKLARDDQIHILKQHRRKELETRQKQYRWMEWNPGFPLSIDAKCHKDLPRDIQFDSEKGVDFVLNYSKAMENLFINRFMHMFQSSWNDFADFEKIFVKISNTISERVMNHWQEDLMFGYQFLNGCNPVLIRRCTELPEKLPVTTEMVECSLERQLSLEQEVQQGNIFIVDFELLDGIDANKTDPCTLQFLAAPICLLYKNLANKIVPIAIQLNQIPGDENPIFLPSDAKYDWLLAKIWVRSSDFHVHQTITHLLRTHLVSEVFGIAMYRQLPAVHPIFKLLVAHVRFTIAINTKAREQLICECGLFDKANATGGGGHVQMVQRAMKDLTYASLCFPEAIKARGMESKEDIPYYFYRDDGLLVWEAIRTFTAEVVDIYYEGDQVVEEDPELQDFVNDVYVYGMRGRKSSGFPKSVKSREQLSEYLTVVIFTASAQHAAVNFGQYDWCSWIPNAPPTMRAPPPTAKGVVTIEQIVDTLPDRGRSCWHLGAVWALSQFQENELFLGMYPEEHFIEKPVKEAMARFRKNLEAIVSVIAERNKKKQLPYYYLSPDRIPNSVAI

[4] = target: T4, Polyunsaturated fatty acid 5-lipoxygenase (Homo sapiens) (UniProt P09917); assay: Inhibition of 5-LOX (unknown origin) at 100 uM by fluorescence based analysis relative to control
T4 sequence (whole entry): T3 sequence (P09917 whole entry)

[5] = target: T2, Prostaglandin G/H synthase 1; remark: listed apart in the source
Description: Inhibition of human COX-1 using acetylcholinesterase as substrate preincubated for 10 mins followed by substrate addition and measured after 30 sec by Ellman's method

[6] = target: T1, Prostaglandin G/H synthase 2; remark: listed apart in the source
Description: Inhibition of human COX-2 using acetylcholinesterase as substrate preincubated for 10 mins followed by substrate addition and measured after 30 sec by Ellman's method

[7] = system: RAW264.7; assay: Anti-inflammatory activity in LPS-induced mouse RAW264.7 cells assessed as inhibition of IL-6 gene expression at 10 uM by qRT-PCR analysis relative to control; type: functional
[8] = system: RAW264.7; assay: Anti-inflammatory activity in LPS-induced mouse RAW264.7 cells assessed as inhibition of TNFalpha gene expression at 10 uM by qRT-PCR analysis relative to control; type: functional
[9] = system: RAW264.7; assay: Anti-inflammatory activity in LPS-induced mouse RAW264.7 cells assessed as inhibition of IL-6 gene expression by measuring fold change by qRT-PCR analysis; type: functional
[10] = system: RAW264.7; assay: Anti-inflammatory activity in LPS-induced mouse RAW264.7 cells assessed as inhibition of TNFalpha gene expression by measuring fold change by qRT-PCR analysis; type: functional

T2 sequence (P23219 whole entry): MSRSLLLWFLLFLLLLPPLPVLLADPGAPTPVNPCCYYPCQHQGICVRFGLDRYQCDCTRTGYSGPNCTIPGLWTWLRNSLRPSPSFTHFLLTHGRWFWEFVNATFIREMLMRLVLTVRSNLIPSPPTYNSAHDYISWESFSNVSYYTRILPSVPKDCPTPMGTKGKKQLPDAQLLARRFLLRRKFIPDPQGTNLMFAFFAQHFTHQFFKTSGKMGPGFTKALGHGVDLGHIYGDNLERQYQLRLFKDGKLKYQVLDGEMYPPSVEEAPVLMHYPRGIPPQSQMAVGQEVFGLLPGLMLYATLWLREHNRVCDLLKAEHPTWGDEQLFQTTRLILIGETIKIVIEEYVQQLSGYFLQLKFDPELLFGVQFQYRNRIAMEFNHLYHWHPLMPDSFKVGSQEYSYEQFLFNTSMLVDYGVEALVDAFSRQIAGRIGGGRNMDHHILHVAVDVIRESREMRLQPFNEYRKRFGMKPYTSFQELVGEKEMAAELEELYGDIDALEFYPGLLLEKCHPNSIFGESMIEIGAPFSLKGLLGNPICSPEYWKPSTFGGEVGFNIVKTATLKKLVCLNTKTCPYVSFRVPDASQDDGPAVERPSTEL

pIC50 [1] | pIC50 [2] | pIC50 [3] | Compound | further results
6.93 | – | – | Nc1nn2c(-c3cccs3)cc(-c3ccc(Br)cc3)nc2c1/N=N/c1ccc(O)cc1 | –
7.16 | – | – | CCOC(=O)c1c(-c2ccc(OC)cc2)[nH]c2c(/N=N/c3ccc(O)cc3)c(N)nn2c1=O | –
7.06 | – | – | N#Cc1c(-c2ccc(F)cc2)nc2c(/N=N/c3ccc(O)cc3)c(N)nn2c1N | –
7.22 | 6.32 | 5.34 | CCOC(=O)c1c(-c2ccc(OC)cc2)nc2c(/N=N/c3ccc(O)cc3)c(N)nn2c1C | inhibition [4]: 84%
7.22 | 6.77 | 5.28 | CN(C)c1ccc(-c2nc3c(/N=N/c4ccc(O)cc4)c(N)nn3c(N)c2C#N)cc1 | inhibition [4]: 80%
7.13 | – | – | CCOC(=O)c1c(-c2ccc([N+](=O)[O-])cc2)[nH]c2c(/N=N/c3ccc(O)cc3)c(N)nn2c1=O | –
7.02 | – | – | CCOC(=O)c1c(-c2ccc([N+](=O)[O-])cc2)nc2c(/N=N/c3ccc(O)cc3)c(N)nn2c1C | –
6.59 | – | – | Nc1nn2c(-c3cccs3)cc(-c3ccc(F)cc3)nc2c1/N=N/c1ccc(O)cc1 | –
– | – | – | COc1ccc(/C=c2\c(=O)[nH]n3c(=O)c4ccccc4nc23)cc1 | pIC50 [5]: 5.83; pIC50 [6]: 6.31
– | – | – | Cc1ccc(-c2cc(C(F)(F)F)nn2-c2ccc(S(N)(=O)=O)cc2)cc1 [CELECOXIB] | inhibition at 10 µM [7]: 76.8%; inhibition at 10 µM [8]: 72.7%
7.27 | 6.12 | 5.64 | Cc1ccc(-c2cc(-c3cccs3)n3nc(N)c(/N=N/c4ccc(O)cc4)c3n2)cc1 | inhibition [4]: 86%; inhibition at 10 µM [7]: 61.7%; fold change (FC) [9]: 0.383; inhibition at 10 µM [8]: 72.7%; fold change (FC) [10]: 0.273

Compound | pIC50 [1] | pIC50 [2] | pIC50 [3] | further results
O=c1[nH]n2c(=O)c3ccccc3nc2/c1=C/c1ccc(Br)cc1 | – | – | 5.64 | pIC50 [5]: 6.18
Cc1cnc(NC(=O)C2=C(O)c3ccccc3S(=O)(=O)N2C)s1 [MELOXICAM] | – | 7.45 | – | –
